In data set [1] the test system is NO production in RAW 264.7 cells. Put plainly: nitrite assay (Griess reaction) for NO production. The format is cell-based, murine. As to conditions: for impact on BG-induced NO-generation: NO after 20 hours. As to the method:
RAW 264.7 cells were seeded in 96 well plates and were cultured for two days. […] Thereafter, the bacterial ghost suspensions were removed by twice washing with PBS and the cells were incubated for another 20 hours in the dark at 37° C. 5% CO2. In order to investigate the stimulatory impact of pure LPS (Fluka; E. coli serotype 055:B5), long-term incubation experiments with various LPS concentrations were conducted for 20 hours.
As an indicater of NO production, nitrite concentration was measured in the supernatant of the macrophages by use of the Griess reaction (Green et al., 1982 Anal Biochem. 126(1): p. 131-8). In short, 100 μl of each supernatant was mixed with 90 μl 1% sulphanilamide (Fluka) in 5% H3PO4 and 90 μl of N-(1-Naphthyl) ethylene diamine dihydrochloride in water. The absorbance was determined at 550 nm with an ELISA reader (Tecan Sunrise).

For a further data set, the system named is RAW 264.7 cells. Put plainly: neutral red cytotoxicity assay. The format is cell-based, murine. The text has this: The neutral red assay was used to test the impact of empty or RV-loaded BGs as well as the chemical per se on the viability of RAW 264.7 cells. Neutral red (3-amino-m-dimethylamino-2methyl-phenazine hydrochloride) selectivly accumulates in lysosomes of living cells (Repetto et al. 2008. Nat Protoc, 2008. 3(7): p. 1125-31) and provides therefore a quantitative assessment of viablitity.
Individual wells of 96-well plates were inoculated with 1.25×10^5 cells and were allowed to attach overnight. Macrophages were treated with 200 μl medium containing RV-loaded and unloaded BGs (all resuspended in sf-medium) in different BG to cell ratios (10, 100, 1000) or with RV alone for either 20 min followed by a 20 hour recovery period or 24 hours. The same conditions were performed with two RV-concentrations (15 μM and 30 μM). Triton X-100 (0.01%) served as a positive control and cells treated with test medium represent the negative control. After treatment, the cells were washed twice with PBS and were incubated either with culture medium for 20 hours or directly with 100 μl of NR (80 μg/ml final concentration) for another two hours (37° C.; 5% CO2). Thereafter, the dye was discarded and the wells were washed two times with PBS. Extraction of the dye was accomplished by addition of 100 μl of the acidic destaining solution (1 ml acetic acid, 73 ml 96% ethanol and 26 ml deionized water). The plates were shaken for 10 min and the developed color was measured by a plate reader (Dynex OpsysMR) at 570 nm (reference wavelength 690 nm).

SMILES strings stand for the structures.

As for `Oc1ccc(C=Cc2cc(O)cc(O)c2)cc1` [RV, resveratrol], the “impact on BG-induced NO-generation” value in data set [1] (0.3 μM and 0.3 μM RV with empty BGs at ratio 500, 20 min) is reported as “no impact”; in data set [1] (30 μM RV with empty BGs at ratio 500, 20 min), “Statistically significant difference”. Besides, the “reduction of nitrite compared to empty BGs alone” value in data set [1] (BG to cell ratio of 100, RV-loaded ghosts or 3 μM RV with empty BGs) is reported as “no effect”. For the same compound, the “reduction of NO compared to empty BGs alone” value in data set [1] (MOI of 1000, RV-ghosts or 3 μM RV coevally with empty BGs) is given as “reduction”. The cell viability entry in the data set on RAW 264.7 cells (15 μM RV) is on record as “no impact at all”; with RAW 264.7 cells (30 μM RV), 81.23 ± 10.6%; with RAW 264.7 cells (short-term coincubation (20 min, measured after 20 hours)) it was “no effects”. The compound also gave a loss of viability in the data set on RAW 264.7 cells (30 μM RV) of 20%.

The values above are taken from US9415017B2, “Bacterial ghosts for mediating innate immunity” (priority 2010, dated 2016).
